What all share (format): cell-based
For assay [1], the system named is IL-1β cytokine output from THP-1s. The experiment in a line: THP-1 AlphaLISA IL-1β cytokine assay (differentiated THP-1 cells, LPS then nigericin). To be noted: Homo sapiens, 30 min pre-incubation, LPS 24 hr, nigericin 1 hour. As for the experimental part: (§1) Measuring Inhibitory Effects on IL-1β and IL-6 Cytokine Output from THP-1s
(§2) The cytokine inhibition profiles of compounds of formula (I) were determined in a differentiated THP-1 cell assay. All assays were performed in RPMI-1640 growth medium (Gibco), supplemented with 10% fetal bovine serum (FBS; Gibco), 1% penicillin-streptomycin and 1% sodium pyruvate unless specified otherwise. The IL-1β and IL-6 cytokine inhibition assays were each run in a background of differentiated THP-1 cells as described below. All reagents described were from Sigma-Aldrich unless specified otherwise. Compounds were prepared as 10 mM DMSO stocks.
(§3) THP-1 cells were expanded as a suspension up to 80% confluence in appropriate growth medium. Cells were harvested, suspended, and treated with an appropriate concentration of phorbol 12-myristate 13-acetate (PMA) over a 72 hr period (37° C./5% CO2).
(§4) Following 72 hrs of THP-1 cell incubation, cellular medium was removed and replaced with fresh growth media containing 1% of FBS. Working concentrations of compounds were prepared separately in 10% FBS treated growth medium and pre-incubated with the cells for 30 minutes (37° C./5% CO2). Following the 30 minute compound pre-incubation, THP-1s were treated with an appropriate concentration of LPS and the THP-1s were subsequently incubated for a 24 hr period (37° C./5% CO2). An appropriate final concentration of Nigericin was then dispensed into the THP-1 plates and incubated for 1 hour (37° C./5% CO2) before THP-1 supernatants were harvested and collected in separate polypropylene 96-well holding plates.
(§5) Reagents from each of the IL-1β and IL-6 commercial kits (Perkin Elmer) were prepared and run according to the manufacturer's instructions. Subsequently, fluorescence signal detection in a microplate reader was measured (EnVision® Multilabel Reader, Perkin Elmer).
(§6) Percentage inhibition was calculated per cytokine by normalizing the sample data to the high and low controls used within each plate (+/−LPS respectively).

Assay [2] has as its system IL-6 cytokine output from THP-1s. The experiment in a line: THP-1 AlphaLISA IL-6 cytokine assay (differentiated THP-1 cells, LPS then nigericin). To be noted: Homo sapiens, 30 min pre-incubation, LPS 24 hr, nigericin 1 hour. Here is the method:
as §1, §2, §3, §4, §5, §6
In general terms: In Alpha technology, singlet oxygen from a donor bead excites a nearby acceptor bead.

The test system of assay [3] is NRF2 (nuclear factor erythroid 2-related factor 2). Briefly: NRF2 activation assay (DiscoverX PathHunter NRF2 translocation kit, U2OS cells). To be noted: Homo sapiens; for Emax: U2OS, normalised to dimethyl fumarate high control; for EC50: U2OS PathHunter cells, 6 hours.
[4] abbreviates: +GSH (30 minute compound/GSH pre-incubation).

Take `C=C(CC(=O)OC1(c2ccc(C(F)(F)F)cc2)CCC1)C(N)=O` [Example 8, 1-(4-(trifluoromethyl)phenyl)cyclobutyl 3-carbamoylbut-3-enoate]: the IC50 in assay [1] turned out to be 34.3 µM; in assay [2], 13.9 µM. In addition, the results for the Emax in assay [3] (+GSH) and in assay [3] (−GSH) were 7% and 21%, respectively. Moreover, the EC50 in assay [3] (setting [4]) and in assay [3] (−GSH) was above 100 µM each time.
On to `C=C(Cc1nc(C2(c3ccc(SC(F)(F)F)cc3)CC2)no1)C(=O)NCC(=O)O` [Example 27, (2-((3-(1-(4-((trifluoromethyl)thio)phenyl)cyclopropyl)-1,2,4-oxadiazol-5-yl)methyl)acryloyl)glycine], for which the IC50 in assay [1] was 9.5 µM; in assay [2], above 100 µM. Further, the Emax in assay [3] (+GSH) was found to be 20%; in assay [3] (−GSH) it was 26%. In addition, the EC50 in assay [3] (setting [4]) and in assay [3] (−GSH) was above 100 µM each time.
As for `C=C(CC(=O)OC1(c2ccc(C(F)(F)F)c(F)c2)CCC1)C(=O)NC` [Example 22, 1-(3-fluoro-4-(trifluoromethyl)phenyl)cyclobutyl 3-(methylcarbamoyl)but-3-enoate], the IC50 came out at 11 µM in assay [1] and 9.4 µM in assay [2]. Further, the results for the Emax in assay [3] (+GSH) and in assay [3] (−GSH) were 48% and 109%, respectively. Further, the results for the EC50 in assay [3] (setting [4]) and in assay [3] (−GSH) were above 100 µM and 14.5 µM, respectively.
Take `C=C(Cc1nc(C2(c3ccc(SC(F)(F)F)cc3)CC2)no1)C(=O)Nc1cnccn1` [Example 2, N-(pyrazin-2-yl)-2-((3-(1-(4-((trifluoromethyl)thio)phenyl)cyclopropyl)-1,2,4-oxadiazol-5-yl)methyl)acrylamide]: the concentration for half-maximal inhibition (IC50) was 0.4 µM in assay [1] and 0.6 µM in assay [2]. For the same molecule, the figures for the Emax in assay [3] (+GSH) and in assay [3] (−GSH) were 79% and 117%, respectively. The EC50 came to 5.2 µM in assay [3] (setting [4]) and 0.9 µM in assay [3] (−GSH).

Broadly, the IC50 is the point on the concentration scale where inhibition reaches its midpoint. A higher IC50 goes with weaker potency. The Emax is the greatest response seen or fitted, relative to the assay's reference. A word on the EC50: it is the midpoint of the concentration-response curve.

The values above are taken from US20240335451A1, “ACRYLAMIDE DERIVATIVES USEFUL AS ANTI-INFLAMMATORY AGENTS” (Sitryx Therapeutics Limited, priority 2021, published 2024).
